Laboratory results from US12653827B2, “Methods of treating indolent systemic mastocytosis” (Telios Pharma Inc., priority 2024, dated 2026).

Tests used:
serum tryptase = test: Serum tryptase in ISM patients; assay type: in vivo, human; conditions: 100 mg or 150 mg BID
Protocol: Also, blood samples were collected at the following timepoints: Cycle 1, Day 1: pre-dose (within 30 minutes prior to the morning dose), 0.5, 1.0, 2.0, 3.0, 4.0, and 6.0 hours (±15 minutes) post-morning dose. Cycle 1, Day 8: pre-dose (within 30 minutes prior to the morning dose) and 2 hours (±15 minutes) post-morning dose. Serum tryptase tests were conducted according to Example 14.
The measurement of serum tryptase can be followed to the procedure described in the literature (McMurray et al., Standardized indolent systemic mastocytosis evaluations across a health care system: implications for screening accuracy, Blood (2024) 144 (4): 408-419). Briefly, the procedure begins with proper patient preparation, avoiding recent physical activity or triggers that could cause mast cell activation. Venous blood samples, preferably drawn when the patient is not experiencing acute symptoms, are collected in serum separator tubes (SSTs) or plain red-top tubes, with approximately 5 mL of blood needed for analysis. After collection, the blood is allowed to clot at room temperature for 30-60 minutes before centrifugation for 10-15 minutes. The serum is then carefully separated from the cells and stored at 2-8° C. for short-term analysis or frozen at −20° C. or lower for long-term storage. […]

human mast cells = test: ISM-like mast cell chemotaxis towards conditioned media (Transwell); assay type: cell-based; conditions: ISM-like conditions, four healthy donors, treated two hours
Protocol: Human mast cells were differentiated from bone marrow CD34+ cells from four healthy donors as set forth in Example 4. Cells were used to produce conditioned media in ISM-like conditions. Conditioned media was the supernatant collected from mast cells cultured with stem cell factor (100 ng/mL), sensitized with NP-IgE (0.1 μg/mL) for 18 hours, treated with Compound 128 for two hours, and stimulated with NP-BSA (antigen; 0.1 μg/mL) for four hours. Migration of mast cells in the top chamber on Transwell […] inserts (Corning) towards the antigen-stimulated conditioned media in the bottom chamber was quantified after four hours using the CellTiter-Glo™ Luminescent Cell Viability Assay Kit (Promega). The amount of luminescence is correlated with live cell numbers. Fold change over the non-activated control was calculated.

IL-4 = test: Anti-IgE induced IL-4 production from basophils in whole blood; assay type: cell-based, human; conditions: whole blood from a healthy donor, treated two hours, anti-IgE six hours
Protocol: Human mast cells lines, ROSA with wildtype KIT and ROSA […] with D816V KIT mutation (ISM-like cells), were licensed from CRNS Innovation and cultured with or without stem cell factor (100 ng/mL), respectively (FIG. 12A). ROSA cells were stimulated with IL-4 (20 ng/mL; R&D Systems) for 18 hours, stained for FcεRIα(Becton Dickinson) for 30 minutes on ice, washed twice with FACS buffer and data was acquired on a flow cytometer. The median fluorescence intensity of FcεRIα was measured. […] Whole blood from a healthy donor was treated with Compound 128 for two hours and the basophils were stimulated with anti-IgE (1 μg/mL; Beckman Coulter) for six hours (FIG. 12B). Plasma was collected and IL-4 levels were measured using the BD CBA human soluble protein master buffer kit and BD CBA human soluble protein flex set for IL-4 (Becton Dickinson). A four-parameter logistic regression analysis was performed on the cytokine levels to determine the EC50 and EC90. […] Therefore, Compound 128 may indirectly effect FcεRI expression by the reduction of IL-4 levels.

mast cells [1] = test: Monomeric IgE-mediated degranulation and cytokine production in mast cells; assay type: cell-based, human; conditions: mast cells from a healthy donor, treated 2 hours, myeloma IgE with SCF
Protocol: Mast cells from a healthy donor were starved of SCF for 18 hours and treated with Compound 128 for 2 hours. Mast cells were stimulated with SCF (100 ng/mL) or myeloma IgE (3 μg/mL; Millipore Sigma) alone or in combination for 30 minutes (CD63 and Histamine) or 24 hours (cytokine production), respectively. For the histamine and cytokine test, supernatant was collected and the levels of histamine and cytokines were measured as set forth in Example 4 for histamine and Example 7 for cytokines. For the CD63 test, the cells were stained for CD63, data was acquired on a flow cytometer and percent activated mast cells calculated as set forth in Example 4. […] The monomeric IgE contribution to degranulation and cytokine production is inhibited by Compound 128.

mast cells [2] = test: Phosphorylation and degranulation markers in antigen-stimulated mast cells grown with chronic SCF (FIG. 21); assay type: cell-based; conditions: 0.1-0.6 μM, antigen 15 minutes
Protocol: Histamine release, CD63 expression, CD203c expression, pBTK (Y223) levels, pP38 (T180/Y182) levels, pPLCg1 (S1248) levels, pERK (T202/Y204) levels, and pS6 (S235/236) levels are shown. Mast cells were grown with continuous (chronic) exposure to SCF and then stimulated with antigen (Ag) for 15 minutes, leading to phosphorylation of multiple kinases, including pBTK, pPLCγ1, pP38, pERK, and pS6 ribosome. This stimulation increases degranulation markers, including CD63, CD203c, and histamine release.

C=CC(=O)N1CCC(F)(CNc2ncnc(N)c2-c2ccc(Oc3ccccc3)cc2)CC1 [Compound 128, 1-(4-(((6-amino-5-(4-phenoxyphenyl)pyrimidin-4-yl)amino)methyl)-4-fluoropiperidin-1-yl)prop-2-en-1-one]
reduction in serum tryptase (serum tryptase): effective in reducing serum tryptase levels
chemoattractant activity of mast cells (chemotaxis towards conditioned media) (human mast cells): inhibited
IgE-mediated IL-4 production (IL-4): potently inhibited
monomeric IgE contribution to degranulation and cytokine production (mast cells [1]): inhibited
phosphorylation (pBTK, pPLCγ1, pP38, pERK, pS6) and degranulation (CD63, CD203c, histamine) (mast cells [2]): decrease to near basal levels
